{
  "source": "paper PMC7028125",
  "about": "(Clinical Pharmacology in Drug Development, 2019)",
  "origin": "cited, not measured here",
  "key": {"[1]": {"details": "mass balance study of 20 mg [14C]‐dolutegravir (80 µCi)"}, "[2]": {"tested_on": "organic cation transporter 2", "parameters": "method as in PMID 23132334", "details": "in vitro"}, "[3]": {"tested_on": "multidrug and toxin extrusion 1 transporter", "details": "in vitro"}, "P‐glycoprotein": {"tested_on": "P‐glycoprotein", "parameters": "method as in PMID 23132334", "details": "in vitro"}, "[4]": {"tested_on": "breast cancer resistance protein", "parameters": "method as in PMID 23132334", "details": "in vitro"}},
  "data": [
    {"smiles": "C[C@@H]1CCO[C@H]2Cn3cc(C(=O)NCc4ccc(F)cc4F)c(=O)c(O)c3C(=O)N12", "note": "[Dolutegravir, dolutegravir]", "values": [
      {"measurement": "Dolutegravir recovered in feces", "setting": "[1]", "value": 64.0, "unit": "%"},
      {"measurement": "Dolutegravir recovered in urine", "setting": "[1]", "value": 31.6, "unit": "%"},
      {"measurement": "Inhibition of organic cation transporter 2 (in words)", "setting": "[2]", "value": "potently inhibits"},
      {"measurement": "Inhibition of multidrug and toxin extrusion 1 transporter (in words)", "setting": "[3]", "value": "potently inhibits"},
      {"measurement": "Substrate for P‐glycoprotein (in words)", "setting": "P‐glycoprotein", "value": "substrate"},
      {"measurement": "Substrate for breast cancer resistance protein (in words)", "setting": "[4]", "value": "substrate"}
    ]}
  ]
}
